{"source": "ChEMBL document CHEMBL6109139", "about": "“Rational Design of the First Dual Agonist at Trace Amine-Associated Receptor 1 and 5-HT2C Receptors Based on Binding Pocket Similarity for the Treatment of Schizophrenia and Alzheimer's Disease-Related Psychosis” (J Med Chem, 2025)", "key": {"[1]": {"test": "Toxicity in male Beagle dog assessed as minimal decrease activity at 2.5 mg/kg, IG administered once daily for 4 weeks", "format": "organism-based, Canis lupus familiaris", "conditions": "in vivo, po, 672 h"}, "Cytochrome P450 2C9": {"target": "Cytochrome P450 2C9 (Homo sapiens, UniProt P11712)", "test": "Inhibition of CYP2C9 in human liver microsomes in presence of NADPH by LC-MS/MS analysis", "format": "ADME, Microsome"}, "[2]": {"target": "Prostaglandin G/H synthase 1 (Homo sapiens) (UniProt P23219)", "sequence (P23219 whole entry)": "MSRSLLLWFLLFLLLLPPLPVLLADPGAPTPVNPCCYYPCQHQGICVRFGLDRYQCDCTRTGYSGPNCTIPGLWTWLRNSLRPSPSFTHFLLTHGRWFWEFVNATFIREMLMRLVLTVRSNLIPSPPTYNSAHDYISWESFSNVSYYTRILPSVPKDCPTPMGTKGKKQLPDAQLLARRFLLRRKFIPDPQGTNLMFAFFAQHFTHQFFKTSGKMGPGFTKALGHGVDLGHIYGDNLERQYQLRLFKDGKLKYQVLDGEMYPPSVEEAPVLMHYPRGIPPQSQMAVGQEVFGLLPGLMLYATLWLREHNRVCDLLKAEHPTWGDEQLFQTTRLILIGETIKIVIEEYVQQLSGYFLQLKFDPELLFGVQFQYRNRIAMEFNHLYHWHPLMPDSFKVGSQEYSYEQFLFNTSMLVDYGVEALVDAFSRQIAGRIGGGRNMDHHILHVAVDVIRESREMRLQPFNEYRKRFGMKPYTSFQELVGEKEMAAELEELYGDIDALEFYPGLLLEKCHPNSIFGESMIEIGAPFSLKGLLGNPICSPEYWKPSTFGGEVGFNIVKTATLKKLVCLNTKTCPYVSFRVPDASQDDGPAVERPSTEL", "test": "Binding affinity to COX1 (unknown origin) at 10 uM by radioligand binding assay relative to control"}, "[3]": {"test": "Toxicity in female Sprague-Dawley rat assessed as suppression of food consumption at 7.5 mg/kg, po administered once daily for 4 weeks and measured weekly twice", "format": "organism-based", "conditions": "in vivo, 672 h"}, "[4]": {"test": "Toxicity in female Sprague-Dawley rat assessed as change in urinalysis at 2.5 to 7.5 mg/kg, po administered once daily for 4 weeks and measured after 4 weeks", "format": "organism-based", "conditions": "in vivo, 1344 h, dose 2.5-7.5 mg/kg, time 8 weeks"}, "[5]": {"test": "Toxicity in male Beagle dog assessed as change in organ ratios at 0.75 to 2.5 mg/kg, IG administered once daily for 4 weeks and measured after 4 weeks", "format": "organism-based, Canis lupus familiaris", "conditions": "in vivo, po, 1344 h, dose 0.75-2.5 mg/kg, time 8 weeks"}, "[6]": {"test": "Metabolic stability in rat liver microsomes assessed as intrinsic clearance at 1 uM incubated for 60 mins by LC-MS/MS analysis", "format": "ADME, Microsome", "conditions": "read-out: CLH"}, "[7]": {"test": "Toxicity in female Beagle dog assessed as change in bone marrow smears at 0.75 to 2.5 mg/kg, IG administered once daily for 4 weeks and measured after 4 weeks", "format": "organism-based, Canis lupus familiaris", "conditions": "in vivo, po, 1344 h, dose 0.75-2.5 mg/kg, time 8 weeks"}, "[8]": {"test": "Toxicity in male Sprague-Dawley rat assessed as slow respiration at 7.5 mg/kg, po administered once daily for 4 weeks and measured after 4 weeks", "format": "organism-based", "conditions": "in vivo, 1344 h, time 8 weeks"}, "Mus musculus [9]": {"tested_on": "Mus musculus", "test": "Antipsychotic activity in amyloid beta(1 to 42) induced cognitive impairment in mouse model assessed as increase in discrimination ratio of novel objects at 1 mg/kg, IG measured after 24 hrs by novel object recognition test", "format": "functional, organism-based"}, "[10]": {"test": "Mutagenicity in Salmonella typhimurium TA97a by Ames test", "format": "toxicity", "conditions": "salmonella enterica subsp. enterica serovar typhimurium"}, "[11]": {"test": "Toxicity in female Beagle dog assessed as somnolence at 2.5 mg/kg, IG administered once daily for 4 weeks and measured after 4 weeks", "format": "organism-based, Canis lupus familiaris", "conditions": "in vivo, po, 1344 h, time 8 weeks"}, "Mus musculus [12]": {"tested_on": "Mus musculus", "test": "Antipsychotic activity against DOI-induced head-twitch response in mouse assessed as reduction in head-twitch response at 10 mg/kg, IG measured for 30 mins relative to control", "format": "functional", "set-up": "scale not given: the % may be the effect or the level left", "conditions": "0.5 h"}, "[13]": {"test": "Toxicity in female Sprague-Dawley rat assessed as piloerection at 7.5 mg/kg, po administered once daily for 4 weeks and measured after 4 weeks", "format": "organism-based", "conditions": "in vivo, 1344 h, time 8 weeks"}, "[14]": {"target": "5-hydroxytryptamine receptor 2A (Homo sapiens) (UniProt P28223)", "sequence (P28223 whole entry)": "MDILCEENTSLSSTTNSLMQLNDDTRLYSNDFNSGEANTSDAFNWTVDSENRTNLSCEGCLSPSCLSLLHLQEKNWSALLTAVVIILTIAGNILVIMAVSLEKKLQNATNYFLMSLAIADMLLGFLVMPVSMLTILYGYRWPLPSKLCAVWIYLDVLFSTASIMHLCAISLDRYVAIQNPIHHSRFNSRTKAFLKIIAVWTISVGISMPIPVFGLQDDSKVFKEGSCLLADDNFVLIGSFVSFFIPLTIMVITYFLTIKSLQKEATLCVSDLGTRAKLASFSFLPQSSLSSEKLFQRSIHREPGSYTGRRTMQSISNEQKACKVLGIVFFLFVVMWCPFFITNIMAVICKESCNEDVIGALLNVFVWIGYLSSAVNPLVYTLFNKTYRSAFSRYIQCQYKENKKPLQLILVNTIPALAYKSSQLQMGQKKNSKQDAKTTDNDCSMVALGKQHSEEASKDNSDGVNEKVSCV", "test": "Binding affinity to 5-HT2A (unknown origin) at 10 uM by radioligand binding assay relative to control"}, "[15]": {"test": "Cardiotoxicity in conscious cynomolgus monkey assessed as arrhythmia at 3.125 to 12.5 mg/kg, IG measured within 24 hrs", "format": "toxicity, organism-based, Macaca fascicularis", "conditions": "in vivo, po, dose 3.125-12.5 mg/kg"}, "[16]": {"test": "Mutagenicity in Salmonella typhimurium TA100 by Ames test", "format": "toxicity", "conditions": "salmonella enterica subsp. enterica serovar typhimurium"}, "[17]": {"target": "5-hydroxytryptamine receptor 1B (Homo sapiens) (UniProt P28222)", "sequence (P28222 whole entry)": "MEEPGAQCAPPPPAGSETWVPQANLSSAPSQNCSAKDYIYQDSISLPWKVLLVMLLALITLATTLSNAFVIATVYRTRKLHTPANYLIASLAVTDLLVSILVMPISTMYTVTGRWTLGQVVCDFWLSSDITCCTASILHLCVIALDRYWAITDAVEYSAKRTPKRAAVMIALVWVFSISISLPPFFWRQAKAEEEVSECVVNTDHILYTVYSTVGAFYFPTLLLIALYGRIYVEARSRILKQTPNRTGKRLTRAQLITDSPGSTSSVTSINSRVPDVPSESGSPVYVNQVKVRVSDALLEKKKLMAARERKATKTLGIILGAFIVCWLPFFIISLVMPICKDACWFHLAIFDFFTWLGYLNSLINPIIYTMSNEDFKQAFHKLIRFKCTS", "test": "Binding affinity to 5-HT1B (unknown origin) at 10 uM by radioligand binding assay relative to control"}, "[18]": {"test": "Plasma protein binding in dog assessed as unbound fraction by LC-MS/MS analysis", "format": "ADME, cell-free, Canis lupus familiaris"}, "[19]": {"target": "Prostaglandin G/H synthase 2 (Homo sapiens) (UniProt P35354)", "sequence (P35354 whole entry)": "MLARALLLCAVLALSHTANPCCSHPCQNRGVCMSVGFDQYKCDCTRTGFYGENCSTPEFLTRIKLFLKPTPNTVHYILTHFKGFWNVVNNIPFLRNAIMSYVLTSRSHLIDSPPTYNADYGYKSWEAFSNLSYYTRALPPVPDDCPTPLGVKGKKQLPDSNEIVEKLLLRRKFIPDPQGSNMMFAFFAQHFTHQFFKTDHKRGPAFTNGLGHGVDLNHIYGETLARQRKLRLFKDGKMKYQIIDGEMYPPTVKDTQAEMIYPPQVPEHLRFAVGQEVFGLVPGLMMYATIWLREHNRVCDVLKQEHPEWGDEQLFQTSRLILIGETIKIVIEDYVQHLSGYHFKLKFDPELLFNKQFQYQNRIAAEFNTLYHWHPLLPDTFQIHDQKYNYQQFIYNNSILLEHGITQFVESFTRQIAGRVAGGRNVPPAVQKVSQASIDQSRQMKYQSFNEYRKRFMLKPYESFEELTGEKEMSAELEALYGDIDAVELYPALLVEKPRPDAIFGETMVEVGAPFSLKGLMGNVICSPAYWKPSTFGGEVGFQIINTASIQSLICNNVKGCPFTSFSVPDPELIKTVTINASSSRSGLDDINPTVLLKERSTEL", "test": "Binding affinity to COX2 (unknown origin) at 10 uM by radioligand binding assay relative to control"}, "Mus musculus [20]": {"species": "Mus musculus", "test": "Antipsychotic activity against MK-801 induced hyperlocomotion in male C57BL/6J mouse model assessed as effective dose", "format": "functional"}, "[21]": {"test": "Toxicity in female Sprague-Dawley rat assessed as change in hematology at 2.5 to 7.5 mg/kg, po administered once daily for 4 weeks and measured after 4 weeks", "format": "organism-based", "conditions": "in vivo, 1344 h, dose 2.5-7.5 mg/kg, time 8 weeks"}, "[22]": {"test": "Cardiotoxicity in conscious cynomolgus monkey assessed as normal spontaneous movement at 3.125 to 12.5 mg/kg, IG", "format": "toxicity, organism-based, Macaca fascicularis", "conditions": "in vivo, po, dose 3.125-12.5 mg/kg"}, "[23]": {"test": "Toxicity in male Sprague-Dawley rat assessed as change in bone marrow smears at 2.5 to 7.5 mg/kg, po administered once daily for 4 weeks and measured after 4 weeks", "format": "organism-based", "conditions": "in vivo, 1344 h, dose 2.5-7.5 mg/kg, time 8 weeks"}, "[24]": {"test": "Mutagenicity in Salmonella typhimurium TA98 by Ames test", "format": "toxicity", "conditions": "salmonella enterica subsp. enterica serovar typhimurium"}, "[25]": {"target": "D(1A) dopamine receptor (Homo sapiens) (UniProt P21728)", "test": "Binding affinity to D1 receptor (unknown origin) at 10 uM by radioligand binding assay relative to control"}, "[26]": {"test": "Toxicity in female Sprague-Dawley rat assessed as irritability at 2.5 mg/kg, po administered once daily for 4 weeks and measured after 4 weeks", "format": "organism-based", "conditions": "in vivo, 1344 h, time 8 weeks"}, "Cytochrome P450 2C19": {"target": "Cytochrome P450 2C19 (Homo sapiens, UniProt P33261)", "sequence (P33261 whole entry)": "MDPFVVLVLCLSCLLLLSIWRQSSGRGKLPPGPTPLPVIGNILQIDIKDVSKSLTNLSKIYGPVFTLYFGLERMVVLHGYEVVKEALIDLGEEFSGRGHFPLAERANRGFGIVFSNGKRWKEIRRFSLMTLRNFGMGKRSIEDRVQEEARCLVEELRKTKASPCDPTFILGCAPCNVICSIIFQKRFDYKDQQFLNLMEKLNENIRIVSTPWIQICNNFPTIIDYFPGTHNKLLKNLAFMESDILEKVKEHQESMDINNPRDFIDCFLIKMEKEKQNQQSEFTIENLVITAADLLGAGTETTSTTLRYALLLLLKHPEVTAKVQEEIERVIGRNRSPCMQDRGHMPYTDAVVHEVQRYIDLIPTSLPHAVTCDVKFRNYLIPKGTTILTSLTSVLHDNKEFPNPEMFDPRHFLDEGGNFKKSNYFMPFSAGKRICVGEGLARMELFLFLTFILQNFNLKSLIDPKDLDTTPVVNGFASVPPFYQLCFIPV", "test": "Inhibition of CYP2C19 in human liver microsomes in presence of NADPH by LC-MS/MS analysis", "format": "ADME, Microsome"}, "[27]": {"test": "Toxicity in male Beagle dog assessed as change in gross necropsy at 0.75 to 2.5 mg/kg, IG administered once daily for 4 weeks and measured after 4 weeks", "format": "organism-based, Canis lupus familiaris", "conditions": "in vivo, po, 1344 h, dose 0.75-2.5 mg/kg, time 8 weeks"}, "[28]": {"test": "Ratio of drug concentration in male Sprague-Dawley rat brain to plasma at 5 mg/kg, IG measured after 1 hrs by LC-MS/MS analysis", "format": "ADME, organism-based", "conditions": "brain and plasma, po, read-out: BPR"}, "[29]": {"target": "Mu-type opioid receptor (Homo sapiens) (UniProt P35372)", "sequence (P35372 whole entry)": "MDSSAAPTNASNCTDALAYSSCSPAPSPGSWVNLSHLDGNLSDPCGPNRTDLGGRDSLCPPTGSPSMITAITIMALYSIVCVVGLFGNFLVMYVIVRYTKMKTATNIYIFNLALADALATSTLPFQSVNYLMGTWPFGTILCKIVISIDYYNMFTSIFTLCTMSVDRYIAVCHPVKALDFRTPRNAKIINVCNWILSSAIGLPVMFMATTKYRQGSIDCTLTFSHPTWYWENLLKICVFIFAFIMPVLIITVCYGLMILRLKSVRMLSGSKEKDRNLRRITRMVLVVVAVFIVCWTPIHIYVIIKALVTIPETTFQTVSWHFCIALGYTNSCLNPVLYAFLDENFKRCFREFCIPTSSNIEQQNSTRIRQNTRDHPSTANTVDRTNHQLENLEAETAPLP", "test": "Binding affinity to op-mu receptor (unknown origin) at 10 uM by radioligand binding assay relative to control"}, "[30]": {"target": "Cannabinoid receptor 1 (Homo sapiens) (UniProt P21554)", "sequence (P21554 whole entry)": "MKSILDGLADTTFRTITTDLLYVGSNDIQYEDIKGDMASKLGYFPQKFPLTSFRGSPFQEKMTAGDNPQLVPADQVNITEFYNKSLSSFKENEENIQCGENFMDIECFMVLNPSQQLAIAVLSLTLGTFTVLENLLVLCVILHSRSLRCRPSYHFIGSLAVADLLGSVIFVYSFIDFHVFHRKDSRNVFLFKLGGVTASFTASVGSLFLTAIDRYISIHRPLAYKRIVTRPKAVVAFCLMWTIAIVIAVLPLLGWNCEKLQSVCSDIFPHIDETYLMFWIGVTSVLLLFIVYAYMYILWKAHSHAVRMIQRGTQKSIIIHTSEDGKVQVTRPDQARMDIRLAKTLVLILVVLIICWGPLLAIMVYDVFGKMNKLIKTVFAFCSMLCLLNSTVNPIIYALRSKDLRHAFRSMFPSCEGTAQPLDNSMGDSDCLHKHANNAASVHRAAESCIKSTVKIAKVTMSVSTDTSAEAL", "test": "Binding affinity to CB1 (unknown origin) at 10 uM by radioligand binding assay relative to control"}, "[31]": {"test": "Toxicity in female Sprague-Dawley rat assessed as slow respiration at 7.5 mg/kg, po administered once daily for 4 weeks and measured after 4 weeks", "format": "organism-based", "conditions": "in vivo, 1344 h, time 8 weeks"}, "[32]": {"test": "Toxicity in female Sprague-Dawley rat assessed as change in prolactin level at 2.5 to 7.5 mg/kg, po administered once daily for 4 weeks and measured after 4 weeks", "format": "organism-based", "conditions": "in vivo, 1344 h, dose 2.5-7.5 mg/kg, time 8 weeks"}, "[33]": {"target": "Trace amine-associated receptor 1 (Mus musculus) (UniProt Q923Y8)", "sequence (Q923Y8 whole entry)": "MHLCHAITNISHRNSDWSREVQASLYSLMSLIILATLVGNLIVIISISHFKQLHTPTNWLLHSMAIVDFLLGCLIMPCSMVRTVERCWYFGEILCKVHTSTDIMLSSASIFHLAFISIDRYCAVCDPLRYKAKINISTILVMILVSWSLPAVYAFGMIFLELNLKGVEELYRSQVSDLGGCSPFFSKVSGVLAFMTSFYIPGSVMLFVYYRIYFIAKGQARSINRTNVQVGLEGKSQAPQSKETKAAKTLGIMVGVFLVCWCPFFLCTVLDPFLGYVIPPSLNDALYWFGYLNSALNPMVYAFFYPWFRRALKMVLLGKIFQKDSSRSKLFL", "test": "Agonist activity at mouse TAAR1 by measuring maximum efficacy relative to control", "format": "functional", "conditions": "filed as agonist"}, "[34]": {"target": "Sodium-dependent dopamine transporter (Homo sapiens) (UniProt Q01959)", "sequence (Q01959 whole entry)": "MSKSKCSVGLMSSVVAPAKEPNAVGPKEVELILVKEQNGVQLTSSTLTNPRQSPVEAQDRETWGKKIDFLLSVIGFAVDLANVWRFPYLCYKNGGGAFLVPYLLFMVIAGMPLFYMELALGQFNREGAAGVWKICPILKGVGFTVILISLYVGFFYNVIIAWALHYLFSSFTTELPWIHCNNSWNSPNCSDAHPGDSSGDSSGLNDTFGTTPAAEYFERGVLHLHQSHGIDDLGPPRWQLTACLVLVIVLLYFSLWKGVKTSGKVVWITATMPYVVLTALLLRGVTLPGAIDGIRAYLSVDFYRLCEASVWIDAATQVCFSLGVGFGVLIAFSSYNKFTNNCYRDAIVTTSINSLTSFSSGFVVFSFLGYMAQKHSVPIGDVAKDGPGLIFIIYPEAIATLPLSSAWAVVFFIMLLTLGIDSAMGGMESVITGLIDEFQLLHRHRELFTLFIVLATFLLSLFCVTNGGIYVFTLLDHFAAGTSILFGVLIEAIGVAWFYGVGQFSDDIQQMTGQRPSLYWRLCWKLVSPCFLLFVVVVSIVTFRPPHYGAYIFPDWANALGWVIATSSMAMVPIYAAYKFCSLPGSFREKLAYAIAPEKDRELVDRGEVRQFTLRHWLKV", "test": "Binding affinity to DAT receptor (unknown origin) at 10 uM by radioligand binding assay relative to control"}, "[35]": {"test": "Toxicity in female Sprague-Dawley rat assessed as irritability at 7.5 mg/kg, po administered once daily for 4 weeks", "format": "organism-based", "conditions": "in vivo, 672 h"}, "[36]": {"test": "Toxicity in male Beagle dog assessed as change in hematology at 0.75 to 2.5 mg/kg, IG administered once daily for 4 weeks and measured after 4 weeks", "format": "organism-based, Canis lupus familiaris", "conditions": "in vivo, po, 1344 h, dose 0.75-2.5 mg/kg, time 8 weeks"}, "MAO-A": {"target": "MAO-A (Homo sapiens, UniProt P21397)", "sequence (P21397 whole entry)": "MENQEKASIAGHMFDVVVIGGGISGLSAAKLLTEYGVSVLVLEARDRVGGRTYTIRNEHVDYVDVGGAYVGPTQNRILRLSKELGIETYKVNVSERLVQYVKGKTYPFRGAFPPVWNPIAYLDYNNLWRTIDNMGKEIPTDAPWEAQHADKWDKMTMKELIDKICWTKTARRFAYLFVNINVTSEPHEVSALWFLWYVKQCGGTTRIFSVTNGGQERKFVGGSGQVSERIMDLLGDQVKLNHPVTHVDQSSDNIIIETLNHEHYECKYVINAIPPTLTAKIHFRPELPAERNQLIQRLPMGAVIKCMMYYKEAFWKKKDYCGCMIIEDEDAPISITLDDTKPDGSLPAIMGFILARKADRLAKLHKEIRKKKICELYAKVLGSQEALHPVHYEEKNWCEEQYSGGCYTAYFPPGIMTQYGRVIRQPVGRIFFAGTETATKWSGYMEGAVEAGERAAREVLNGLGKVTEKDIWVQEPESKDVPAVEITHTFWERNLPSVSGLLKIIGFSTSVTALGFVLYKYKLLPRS", "test": "Binding affinity to MAO-A (unknown origin) at 10 uM by radioligand binding assay relative to control", "conditions": "read-out: Activity"}}, "note": "Calls of active or inactive are those of the source. The rule behind the calls is not given here."}
{"smiles": "c1cc2c(s1)[C@@H]1CNCCN1CC2", "values": [{"measurement": "Activity", "setting": "[1]", "result": "Toxic"}, {"measurement": "IC50", "setting": "Cytochrome P450 2C9", "result": "> 50", "unit": "µM"}, {"measurement": "Activity", "setting": "[2]", "result": 33.3, "unit": "%"}, {"measurement": "Activity", "setting": "[3]", "result": "Toxic"}, {"measurement": "Activity", "setting": "[4]", "result": "Non-toxic"}, {"measurement": "Activity", "setting": "[5]", "result": "Non-toxic"}, {"measurement": "CLint scaled at 1 µM", "setting": "[6]", "result": "< 13.5", "unit": "mL/min/kg"}, {"measurement": "Activity", "setting": "[7]", "result": "Non-toxic"}, {"measurement": "Activity", "setting": "[8]", "result": "Non-toxic"}, {"measurement": "Activity", "setting": "Mus musculus [9]", "result": "Active"}, {"measurement": "Activity", "setting": "[10]", "result": "Non-toxic"}, {"measurement": "Activity", "setting": "[11]", "result": "Non-toxic"}, {"measurement": "Activity", "setting": "Mus musculus [12]", "result": 100, "unit": "%"}, {"measurement": "Activity", "setting": "[13]", "result": "Non-toxic"}, {"measurement": "Activity", "setting": "[14]", "result": 36.5, "unit": "%"}, {"measurement": "Activity", "setting": "[15]", "result": "Non-toxic"}, {"measurement": "Activity", "setting": "[16]", "result": "Non-toxic"}, {"measurement": "Activity", "setting": "[17]", "result": 47.9, "unit": "%"}, {"measurement": "fraction unbound", "setting": "[18]", "result": 0.761}, {"measurement": "Activity", "setting": "[19]", "result": 48.5, "unit": "%"}, {"measurement": "ED50", "setting": "Mus musculus [20]", "result": 2.81, "unit": "mg/kg"}, {"measurement": "Activity", "setting": "[21]", "result": "Non-toxic"}, {"measurement": "Activity", "setting": "[22]", "result": "Non-toxic"}, {"measurement": "Activity", "setting": "[23]", "result": "Non-toxic"}, {"measurement": "Activity", "setting": "[24]", "result": "Non-toxic"}, {"measurement": "Activity", "setting": "[25]", "result": 45.9, "unit": "%"}, {"measurement": "Activity", "setting": "[26]", "result": "Non-toxic"}, {"measurement": "IC50", "setting": "Cytochrome P450 2C19", "result": "> 50", "unit": "µM"}, {"measurement": "Activity", "setting": "[27]", "result": "Non-toxic"}, {"measurement": "Kp at 1 h", "setting": "[28]", "result": 6.02}, {"measurement": "Activity", "setting": "[29]", "result": 18.2, "unit": "%"}, {"measurement": "Activity", "setting": "[30]", "result": 2.45, "unit": "%"}, {"measurement": "Activity", "setting": "[31]", "result": "Non-toxic"}, {"measurement": "Activity", "setting": "[32]", "result": "Non-toxic"}, {"measurement": "Emax", "setting": "[33]", "result": 100, "unit": "%"}, {"measurement": "Activity", "setting": "[34]", "result": -6.53, "unit": "%"}, {"measurement": "Activity", "setting": "[35]", "result": "Toxic"}, {"measurement": "Activity", "setting": "[36]", "result": "Non-toxic"}, {"measurement": "activity at 10 µM", "setting": "MAO-A", "result": 5.33, "unit": "%"}]}
